A melting point compilation (Tetko et al.)

Row | melting point [°C] | Compound
1 | 130 to 150 | C=CCC1C=C(C)CC(C)CC(OC)C2OC(O)(C(C)CC2OC)C(O)C(=O)N2CCCCC2C(=O)OC(C(C)=CC2CCC(O)C(OC)C2)C(C)C(O)CC1O (configuration not stated)
2 | 65 to 67 | O=CCCCCCCOc1ccc(OCc2ccccc2)cc1
3 | 187 to 189 | COC(=O)c1ccc([C@H](C)NC(=O)CN2CCN(CC(=O)N[C@@H](C)c3ccccc3)CCN(Cc3ccn(-c4ccc5c(=O)c6cc(C(C)(C)C)ccc6oc5n4)n3)CCN(CC(=O)N[C@@H](C)c3ccccc3)CC2)cc1
4 | 165 to 171 | Cc1cc(Cn2nnn(-c3cc(C(F)(F)F)cc(C(F)(F)F)c3)c2=O)ccc1N(C(=O)c1c(I)cccc1C(N)=O)C(C)(C)CS(C)=O (configuration not stated)
5 | 105 | N#Cc1cccc(N2CCOCC2)c1
6 | 200 to 202 | CCCCCCCCCCCCN(CCCCCCCCCCCC)S(=O)(=O)c1cc(NS(=O)(=O)c2ccc(NC(C)=O)c3c(O)c(N=Nc4ccccc4OC)ccc23)c(O)c2ccccc12
7 | 112 to 114 | CCC(Br)=C1NC(=O)N(C(C(=O)Nc2cc(NC(=O)C(CC)Oc3ccc(C(C)(C)CC)cc3C(C)(C)CC)ccc2Cl)C(=O)c2ccc(OC)cc2)C1=O (configuration not stated)
8 | 228 to 235 | CCCCc1c(CC[Si](Cl)(Cl)Cl)c(CC[Si](Cl)(Cl)Cl)c(CC[Si](Cl)(Cl)Cl)c(CC[Si](Cl)(Cl)Cl)c1CC[Si](Cl)(Cl)Cl
9 | 108 to 110 | O=S(=O)(CCCCCOc1ccc(C2=C(c3ccc(OC4CCCCO4)cc3)CCCc3cc(OC4CCCCO4)ccc32)cc1)CCCC(F)(F)C(F)(F)F (configuration not stated)
10 | 120 | CCCCC1(CC)CS(=O)(=O)c2ccc(N(C)C)cc2C(c2cccc(NC(=O)COCCOCCOCC(=O)NCc3ccc(C4C(CCC(O)c5ccccc5)C(=O)N4c4ccc(F)cc4)cc3)c2)C1O (configuration not stated)
11 | 123 | Cc1ccc2cccc(OCc3c(Cl)ccc(S(=O)(=O)N4CCC[C@H]4C(=O)NC4CCN(C(=O)CN(C=NC(=O)OC(C)(C)C)NC(=O)OC(C)(C)C)CC4)c3Cl)c2n1
12 | 131 to 133 | Cc1ccc(N(C)c2cccs2)cc1O
13 | 164 to 166 | O=S(=O)(Oc1ccc2c(OS(=O)(=O)c3ccc(OCc4ccccc4)cc3)c3cc(OS(=O)(=O)c4ccc(OCc5ccccc5)cc4)ccc3cc2c1)c1ccc(OCc2ccccc2)cc1
14 | 191 | CC#CCOc1ccc(S(=O)(=O)C(C(=O)NO)C2CCCCC2)cc1 (configuration not stated)
15 | 227 to 228 | CCC1=C(C#N)c2cc3c(c(O)c2CC1)C(=O)c1c(O)cccc1C3=O
16 | 211 to 212 | CC(C)(C)c1cc(-c2cc(C(C)(C)C)cc(C(C)(C)C)c2OCP(=O)(c2ccccc2)c2ccccc2)c(OCP(=O)(c2ccccc2)c2ccccc2)c(C(C)(C)C)c1
17 | 245 to 247 | Cc1ccc(S(=O)(=O)N2CCN(S(=O)(=O)c3ccc(C)cc3)CCN(S(=O)(=O)c3ccc(C)cc3)CC(C)N(S(=O)(=O)c3ccc(C)cc3)CCN(S(=O)(=O)c3ccc(C)cc3)CC2)cc1 (configuration not stated)
18 | 60.2 | C=C(C)C(=O)OCCCCCCCCCCCOc1ccc(-c2nc(-c3ccc(OCCCCCCCCCCCOC(=O)C(=C)C)cc3O)nc(-c3ccc(OCCCCCCCCCCCOC(=O)C(=C)C)cc3O)n2)c(O)c1
19 | 202 to 207 | CC1(C)CC2(CC(C)(C)N1)NC(=O)N(CC(COc1ccc(C(C)(C)c3ccc(OCC(CN4C(=O)NC5(CC(C)(C)NC(C)(C)C5)C4=O)OC(=O)Nc4ccccc4)cc3)cc1)OC(=O)Nc1ccccc1)C2=O (configuration not stated)
20 | 163 to 166 | CC(C)CCCC(C)CCC1(CCC(C)CCCC(C)C)c2cc(Br)ccc2-c2ccc(-c3nc4cc5sc(-c6ccc7c(c6)C(CCC(C)CCCC(C)C)(CCC(C)CCCC(C)C)c6cc(Br)ccc6-7)nc5cc4s3)cc21 (configuration not stated)
21 | 150 | O=C(O)CN(CC(COCc1ccccc1)N(CCCOCc1ccccc1)CC(=O)O)CC(COCc1ccccc1)N(CCCOCc1ccccc1)CC(=O)O (configuration not stated)

Row | Compound | melting point [°C]
22 | CC(C)CCCC(C)C1CCC2C3CC=C4CC(N(CCCNC(=O)CCCCCNc5ccc([N+](=O)[O-])cc5[N+](=O)[O-])S(=O)(=O)c5ccccc5[N+](=O)[O-])CCC4(C)C3CCC12C (configuration not stated) | 80 to 82
